Legend:
Assay type in all cases: functional
Athelia rolfsii [1] = test: Antimicrobial activity against Athelia rolfsii assessed as growth inhibition at 100 ppm by agar dilution method; settings: Agroathelia rolfsii; read-out: GI
Pythium [2] = test: Antimicrobial activity against Pythium sp. assessed as growth inhibition at 100 ppm by agar dilution method; settings: read-out: GI
Athelia rolfsii [3] = test: Antimicrobial activity against Athelia rolfsii assessed as growth inhibition at 10 ppm by agar dilution method; settings: Agroathelia rolfsii; read-out: GI
Pythium [4] = test: Antimicrobial activity against Pythium sp. assessed as growth inhibition at 10 ppm by agar dilution method; settings: read-out: GI

`Cc1ccc(C(C)C)c(OC(=O)/C=C/c2ccccc2)c1` was tested. Which inhibition of growth at 100 ppm (Athelia rolfsii [1]) did it give?
The inhibition of growth at 100 ppm was 45%.

What about the inhibition of growth at 100 ppm (Pythium [2]) of the same compound?
Its inhibition of growth at 100 ppm is 54%.

For `CCCOC(=O)/C=C/c1ccc(O)c(OC)c1`, which inhibition of growth at 100 ppm (Athelia rolfsii [1]) is on record?
The inhibition of growth at 100 ppm was 26%.

And the inhibition of growth at 100 ppm (Pythium [2])?
Its inhibition of growth at 100 ppm is 9%.

Which results are given for `COc1cc(/C=C/C(=O)OC(C)C)ccc1O`?
inhibition of growth at 100 ppm (Athelia rolfsii [1]): 38%; inhibition of growth at 100 ppm (Pythium [2]): 18%

What does the source list for `CCCCOC(=O)/C=C/c1ccc(O)c(OC)c1`?
inhibition of growth at 100 ppm (Athelia rolfsii [1]): 0%; inhibition of growth at 100 ppm (Pythium [2]): 0%

For `CCCOC(=O)/C=C/c1ccc(O)cc1`, which inhibition of growth at 100 ppm (Athelia rolfsii [1]) is on record?
The inhibition of growth at 100 ppm was 70%.

What about the inhibition of growth at 10 ppm (Athelia rolfsii [3]) of the same compound?
Its inhibition of growth at 10 ppm is 9%.

What about the inhibition of growth at 10 ppm (Pythium [4]) of the same compound?
The inhibition of growth at 10 ppm was 31%.

What about the inhibition of growth at 100 ppm (Pythium [2]) of the same compound?
The inhibition of growth at 100 ppm was 91%.

For `CCCCOC(=O)/C=C/c1ccc(O)cc1`, which inhibition of growth at 100 ppm (Athelia rolfsii [1]) is on record?
Its inhibition of growth at 100 ppm is 81%.

And the inhibition of growth at 10 ppm (Athelia rolfsii [3])?
The inhibition of growth at 10 ppm was 29%.

What about the inhibition of growth at 10 ppm (Pythium [4]) of the same compound?
The inhibition of growth at 10 ppm was 35%.

What about the inhibition of growth at 100 ppm (Pythium [2]) of the same compound?
The inhibition of growth at 100 ppm was 71%.

Which results are given for `O=C(/C=C/c1ccc(O)cc1)Oc1ccccc1`?
inhibition of growth at 100 ppm (Athelia rolfsii [1]): 53%; inhibition of growth at 10 ppm (Pythium [4]): 16%; inhibition of growth at 100 ppm (Pythium [2]): 80%

What does the source list for `CC(C)=CCCC(C)CCOC(=O)/C=C/c1ccc(O)cc1` (stereo not given)?
inhibition of growth at 100 ppm (Athelia rolfsii [1]): 55%; inhibition of growth at 100 ppm (Pythium [2]): 63%

With `Cc1ccc(OC(=O)/C=C/c2ccc(O)cc2)c(C(C)C)c1` as the compound, how does the inhibition of growth at 100 ppm (Athelia rolfsii [1]) read?
Its inhibition of growth at 100 ppm is 38%.

What about the inhibition of growth at 100 ppm (Pythium [2]) of the same compound?
Its inhibition of growth at 100 ppm is 36%.

How did the inhibition of growth at 100 ppm (Athelia rolfsii [1]) turn out when `Cc1ccc(C(C)C)c(OC(=O)/C=C/c2ccc(O)cc2)c1` was run?
Its inhibition of growth at 100 ppm is 31%.

And the inhibition of growth at 100 ppm (Pythium [2])?
Its inhibition of growth at 100 ppm is 33%.

With `COc1cc(/C=C/C(=O)Oc2ccc(C)cc2C(C)C)ccc1O` as the compound, how does the inhibition of growth at 100 ppm (Athelia rolfsii [1]) read?
Its inhibition of growth at 100 ppm is 37%.

And the inhibition of growth at 100 ppm (Pythium [2])?
Its inhibition of growth at 100 ppm is 49%.

With `COc1cc(/C=C/C(=O)Oc2cc(C)ccc2C(C)C)ccc1O` as the compound, how does the inhibition of growth at 100 ppm (Athelia rolfsii [1]) read?
Its inhibition of growth at 100 ppm is 58%.

What about the inhibition of growth at 100 ppm (Pythium [2]) of the same compound?
The inhibition of growth at 100 ppm was 9%.

Which results are given for `C=CCc1ccc(OC(=O)/C=C/c2ccc(O)c(OC)c2)c(OC)c1`?
inhibition of growth at 100 ppm (Athelia rolfsii [1]): 38%; inhibition of growth at 100 ppm (Pythium [2]): 31%

Which results are given for `CC(C)=CCCC(C)CCOC(=O)/C=C/c1ccccc1` (stereo not given)?
inhibition of growth at 100 ppm (Athelia rolfsii [1]): 0%; inhibition of growth at 100 ppm (Pythium [2]): 0%

Which results are given for `C=CCc1ccc(OC(=O)/C=C/c2ccccc2)c(OC)c1`?
inhibition of growth at 100 ppm (Athelia rolfsii [1]): 22%; inhibition of growth at 100 ppm (Pythium [2]): 28%

`COC(=O)/C=C/c1ccc(O)c(OC)c1` was tested. Which inhibition of growth at 100 ppm (Athelia rolfsii [1]) did it give?
Its inhibition of growth at 100 ppm is 37%.

What about the inhibition of growth at 100 ppm (Pythium [2]) of the same compound?
The inhibition of growth at 100 ppm was 0%.

`O=C(O)/C=C/c1ccccc1` [CINNAMIC ACID] was tested. Which inhibition of growth at 100 ppm (Athelia rolfsii [1]) did it give?
The inhibition of growth at 100 ppm was 100%.

And the inhibition of growth at 10 ppm (Athelia rolfsii [3])?
Its inhibition of growth at 10 ppm is 24%.

And the inhibition of growth at 10 ppm (Pythium [4])?
Its inhibition of growth at 10 ppm is 12%.

What about the inhibition of growth at 100 ppm (Pythium [2]) of the same compound?
Its inhibition of growth at 100 ppm is 97%.

With `O=C(O)/C=C/c1ccc(O)cc1` [COUMARIC ACID] as the compound, how does the inhibition of growth at 100 ppm (Athelia rolfsii [1]) read?
The inhibition of growth at 100 ppm was 46%.

And the inhibition of growth at 100 ppm (Pythium [2])?
The inhibition of growth at 100 ppm was 10%.

How did the inhibition of growth at 100 ppm (Athelia rolfsii [1]) turn out when `COC(=O)/C=C/c1ccccc1` [E-METHYL CINNAMATE] was run?
The inhibition of growth at 100 ppm was 53%.

And the inhibition of growth at 100 ppm (Pythium [2])?
The inhibition of growth at 100 ppm was 66%.

`CCOC(=O)/C=C/c1ccc(O)c(OC)c1` [ETHYL FERULATE] was tested. Which inhibition of growth at 100 ppm (Athelia rolfsii [1]) did it give?
Its inhibition of growth at 100 ppm is 43%.

What about the inhibition of growth at 100 ppm (Pythium [2]) of the same compound?
The inhibition of growth at 100 ppm was 50%.

Which results are given for `CCOC(=O)/C=C/c1ccc(O)cc1` [ETHYL P-COUMARATE]?
inhibition of growth at 100 ppm (Athelia rolfsii [1]): 45%; inhibition of growth at 10 ppm (Athelia rolfsii [3]): 8%; inhibition of growth at 10 ppm (Pythium [4]): 29%; inhibition of growth at 100 ppm (Pythium [2]): 87%

Which inhibition of growth at 100 ppm (Athelia rolfsii [1]) does the source give for `COc1cc(/C=C/C(=O)O)ccc1O` [FERULATE] here?
The inhibition of growth at 100 ppm was 54%.

And the inhibition of growth at 100 ppm (Pythium [2])?
The inhibition of growth at 100 ppm was 48%.

What does the source list for `CCCCCCCOC(=O)/C=C/c1ccccc1` [HEPTYL CINNAMATE]?
inhibition of growth at 100 ppm (Athelia rolfsii [1]): 10%; inhibition of growth at 100 ppm (Pythium [2]): 42%

Which inhibition of growth at 100 ppm (Athelia rolfsii [1]) does the source give for `CC(C)OP(=O)(OC(C)C)SCc1ccccc1` [IPROBENFOS] here?
Its inhibition of growth at 100 ppm is 100%.

What about the inhibition of growth at 10 ppm (Athelia rolfsii [3]) of the same compound?
The inhibition of growth at 10 ppm was 69%.

What about the inhibition of growth at 10 ppm (Pythium [4]) of the same compound?
The inhibition of growth at 10 ppm was 42%.

What about the inhibition of growth at 100 ppm (Pythium [2]) of the same compound?
Its inhibition of growth at 100 ppm is 89%.

Which results are given for `CC(C)OC(=O)/C=C/c1ccc(O)cc1` [ISOPROPYL 3-(4-HYDROXYPHENYL)ACRYLATE]?
inhibition of growth at 100 ppm (Athelia rolfsii [1]): 84%; inhibition of growth at 10 ppm (Athelia rolfsii [3]): 10%; inhibition of growth at 10 ppm (Pythium [4]): 41%; inhibition of growth at 100 ppm (Pythium [2]): 98%

How did the inhibition of growth at 100 ppm (Athelia rolfsii [1]) turn out when `COC(=O)/C=C/c1ccc(O)cc1` [METHYL P-HYDROXYCINNAMATE] was run?
The inhibition of growth at 100 ppm was 41%.

What about the inhibition of growth at 10 ppm (Pythium [4]) of the same compound?
The inhibition of growth at 10 ppm was 0%.

What about the inhibition of growth at 100 ppm (Pythium [2]) of the same compound?
Its inhibition of growth at 100 ppm is 54%.

Which results are given for `CCCCCCCCOC(=O)/C=C/c1ccccc1` [OCTYL CINNAMATE]?
inhibition of growth at 100 ppm (Athelia rolfsii [1]): 13%; inhibition of growth at 100 ppm (Pythium [2]): 56%

For `O=C(/C=C/c1ccccc1)OCCc1ccccc1` [PHENETHYL CINNAMATE], which inhibition of growth at 100 ppm (Athelia rolfsii [1]) is on record?
Its inhibition of growth at 100 ppm is 22%.

What about the inhibition of growth at 100 ppm (Pythium [2]) of the same compound?
Its inhibition of growth at 100 ppm is 28%.
